The values that follow come from patent publication US4581354A, “3-arylcarbonyl- and 3-cycloalkylcarbonyl-1-aminoalkyl-1H-indoles, compositions and use” (Sterling Drug Inc., priority 1985, dated 1986).

Where a name gives a salt, the structure may show the parent alone. Read-outs that look alike come from different tables or passages of the source.

What is called ED50 is the dose that gives a 50% effect, or the effect in half of the subjects.

Test [1] has as its system bradykinin. Kind of test: anti-bradykinin test (BRDK). The note with it: for inhibition in vivo at 200 mg/kg: 200 mg./kg. oral; for ED50: po. Format: in vivo. An excerpt:
(§1) The test procedures used to determine the analgesic activities of the compounds have been described in detail in the prior art and are as follows: The acetylcholine-induced abdominal constriction test, which is a primary analgesic screening test designed to measure the ability of a test agent to suppress acetylcholine-induced abdominal constriction in mice, described by Collier et al., Brit. J. Pharmacol. Chemotherap. 32, 295 (1968); a modification of the anti-bradykinin test, which is also a primary analgesic screening procedure, described by Berkowitz et al., J. Pharmacol. Exptl. Therap. 177, 500-508 (1971), Blane et al., J. Pharm. Pharmacol. 19, 367-373 (1967), Botha et al., Eur. J. Pharmacol. 6, 312-321 (1969) and Deffenu et al., J. Pharm. Pharmacol. 18, 135 (1966); and the rat paw flexion test, described by Kuzuna et al., Chem. Pharm. Bull., 23, 1184-1191 (1975), Winter et al., J. Pharm. Exptl. Therap., 211, 678-685 (1979) and Capetola et al., J. Pharm. Exptl. Therap. 214, 16-23 (1980).
(§2) Unless noted otherwise, all data were obtained on oral administration and are expressed either as the ED50 or as the percent inhibition at a given dose level (thus 30/100 or 30% inhibition at […].)
(§3) In some instances, the compounds were retested two or more times, and ED50 values were calculated for each series of repeat tests. In such instances, each of the ED50 values so-obtained is given in a series of values, thus 6, 28, 30, 43 in the case of the species of Example 1AW in the acetylcholine-induced abdominal constriction test.

Test [2] relates to acetylcholine-induced abdominal constriction. Briefly: animal or person. Type of test: in vivo, mice. The following applies: Mus musculus; for ED50: read-out: Ach ED50.
Test [3] relates to rat paw flexion. Kind of test: rat paw flexion test (P.F.). Type of test: in vivo. The following applies: for inhibition in vivo at 30 mg/kg: 30 mg./kg. oral; for inhibition in vivo at 100 mg/kg: 100 mg./kg. oral; for ED50: oral; for inhibition in vivo at 10 mg/kg: 10 mg./kg. oral; for inhibition in vivo at 300 mg/kg: 300 mg./kg. oral.
Source text: as §1, §2, §3

[4] abbreviates: read-out: BRDK percent inhibition.
[5] abbreviates: po, read-out: P.F. percent inhibition.

In the case of `CCc1ccc(C(=O)c2c(C)n(CCN3CCOCC3)c3ccccc23)cc1` [Example 1AC], in test [1] (setting [4]), the inhibition in vivo at 200 mg/kg was 0%. The inhibition in vivo at 1.77 mg/kg in test [2] (iv, 1.77 mg./kg. i.v., read-out: Ach percent inhibition) was 10%. The inhibition in vivo at 2.2 mg/kg in test [2] (iv, 2.2 mg./kg. i.v., read-out: Ach percent inhibition) was found to be 10%. In test [2] (iv, 3 mg./kg. i.v., read-out: Ach percent inhibition), the inhibition in vivo at 3 mg/kg was 80%. Further, the inhibition in vivo at 10 mg/kg in test [2] (iv, 10 mg./kg. i.v., read-out: Ach percent inhibition) amounted to 100%. Moreover, the ED50 in test [2] (po) was found to be 30 mg/kg. Moreover, in test [3] (setting [5]), the inhibition in vivo at 30 mg/kg stood at 43% and the inhibition in vivo at 100 mg/kg was found to be 75%. Besides, the inhibition in vivo at 50 mg/kg in test [3] (po, 50 mg./kg. oral, read-out: P.F. percent inhibition) worked out at 57%.

On to `Cc1ccc(C(=O)c2c(C)n(CCN3CCOCC3)c3ccccc23)cc1` [Example 1AE], for which the inhibition in vivo at 300 mg/kg in test [1] (300 mg./kg. oral, read-out: BRDK percent inhibition) came to 20%. Moreover, the ED50 came out at 29 mg/kg in test [2] (po) and 66.2 mg/kg in test [3].

On to `Cc1c(C(=O)c2ccccc2)c2ccccc2n1CCN1CCOCC1` [Example 1AO], for which the ED50 was 111 mg/kg in test [1] and 28 mg/kg in test [2] (po). Further, in test [3] (setting [5]), the inhibition in vivo at 100 mg/kg worked out at 75%.

With `Cc1c(C(=O)c2ccc(Cl)cc2)c2ccccc2n1CCN1CCOCC1` [Example 1AQ], the median effective dose (ED50) in test [2] (iv) came out at 17 mg/kg. Moreover, the inhibition in vivo at 300 mg/kg in test [2] (po, 300 mg./kg. oral, read-out: Ach percent inhibition) turned out to be 53%. Moreover, in test [3] (setting [5]), the inhibition in vivo at 10 mg/kg is 0%, the inhibition in vivo at 30 mg/kg was 12% and the inhibition in vivo at 100 mg/kg came out at 12%.

Turning to `Cc1c(C(=O)c2ccccc2)c2ccccc2n1C(C)CN1CCOCC1` (stereo not drawn) [Example 1AW], the ED50 in test [1] is 229 mg/kg; in test [3], 26 mg/kg.

In test [1], `CC(CN1CCOCC1)n1cc(C(=O)c2ccccc2)c2ccccc21` (stereo not drawn) [Example 1AY] returned an ED50 of 141 mg/kg. Moreover, the ED50 in test [2] (iv) was 8.5 mg/kg. In test [3] (setting [5]), the inhibition in vivo at 30 mg/kg turned out to be 0%, the inhibition in vivo at 100 mg/kg was 0% and the inhibition in vivo at 300 mg/kg came out at 20%.

In the case of `CSc1ccc(C(=O)c2c(C)n(CCN3CCOCC3)c3ccccc23)cc1` [Example 1D], the inhibition in vivo at 100 mg/kg in test [1] (100 mg./kg. oral, read-out: BRDK percent inhibition) turned out to be 0%. Also, the ED50 in test [2] (iv) worked out at 5.1 mg/kg; in test [2] (sc) it was 49 mg/kg; in test [3] it was 64 mg/kg.

`Cc1c(C(=O)c2ccc([S+](C)[O-])cc2)c2ccccc2n1CCN1CCOCC1` (stereo not drawn) [Example 1F]: the inhibition in vivo at 200 mg/kg in test [1] (setting [4]) stood at 0%. Moreover, the ED50 in test [2] (iv) was 13 mg/kg; in test [2] (po) it was 20 mg/kg. For the same compound, in test [3] (setting [5]), the inhibition in vivo at 100 mg/kg came to 88%.

As to `COc1ccc(C(=O)c2c(C)n(C(C)CN3CCOCC3)c3ccccc23)cc1` (stereo not drawn) [Example 2I], the ED50 in test [1] came out at 132 mg/kg; in test [2] (iv) it was 2.6 mg/kg; in test [2] (po), 28 mg/kg; in test [2] (sc), 18 mg/kg. Further, the inhibition in vivo at 100 mg/kg in test [3] (setting [5]) worked out at 62%.

For the compound `COc1ccc(C(=O)c2c(C)n(CCN3CCCC(O)C3)c3ccccc23)cc1` (stereo not drawn) [Example 3B, 1-[2-(3-hydroxy-1-piperidinyl)ethyl]-2-methyl-3-(4-methoxybenzoyl)-1H-indole], the ED50 in test [2] (iv) was 3 mg/kg. For the same compound, in test [2] (po), the median effective dose (ED50) stood at 26.5 mg/kg. Also, the 50% effective dose (ED50) in test [2] (sc) was determined as 10 mg/kg. Further, in test [3] (setting [5]), the inhibition in vivo at 30 mg/kg is 50%, the inhibition in vivo at 100 mg/kg came out at 86% and the inhibition in vivo at 300 mg/kg came to 86%.

Turning to `Cc1c(C(=O)c2ccc(N)cc2)c2ccccc2n1CCN1CCOCC1` [Example 4B, 2-methyl-3-(4-aminobenzoyl)-1-[2-(4-morpholinyl)ethyl]-1H-indole], the ED50 in test [1] worked out at 38 mg/kg; in test [2] (iv) it was 6 mg/kg; in test [2] (po) it was 24 mg/kg; in test [3], 27.6 mg/kg.

The compound `CC(=O)Nc1cccc(C(=O)c2c(C)n(CCN3CCOCC3)c3ccccc23)c1` [Example 5B] showed an ED50 in test [1] of 61 mg/kg. For the same compound, in test [2] (po), the ED50 was 25 mg/kg. In test [3] (setting [5]), the inhibition in vivo at 10 mg/kg is 0%, the inhibition in vivo at 30 mg/kg came to 12% and the inhibition in vivo at 100 mg/kg is 12%.

On to `CNc1ccc(C(=O)c2c(C)n(CCN3CCOCC3)c3ccccc23)cc1` [Example 8A, 2-methyl-3-(4-methylaminobenzoyl)-1-[2-(4-morpholinyl)-ethyl]-1H-indole dihydrochloride hemihydrate], for which the ED50 in test [2] (po) was found to be 32 mg/kg. In test [3] (setting [5]), the inhibition in vivo at 30 mg/kg amounted to 62%.

Regarding `Cc1c(C(=O)c2ccc(CNC(=N)N)cc2)c2ccccc2n1CCN1CCOCC1` [Example 17, 2-methyl-3-(4-guanidinylmethylbenzoyl)-1-[2-(4-morpholinyl)ethyl]-1H-indole sulfate (2:1)], in test [1] (sc, 100 mg./kg. s.c., read-out: BRDK percent inhibition), the inhibition in vivo at 100 mg/kg came to 33%. The inhibition in vivo at 30 mg/kg in test [2] (po, 30 mg./kg. oral, read-out: Ach percent inhibition) was found to be 7%. Further, the ED50 in test [2] (sc) was determined as 6.6 mg/kg.
